According to patent US11246945B2, “Cisplatin-loaded microbubbles, pharmaceutical composition for treatment of cancer, method for preparing pharmaceutical compositions and method for treating cancer” (National Defense Medical Center, priority 2019, dated 2022):

How the values were obtained:
[1] = test system: FaDu-fLuc/GFP tumor xenograft; assay: Anti-tumor effect on head and neck cancer xenograft (IVIS bioluminescence); type: in vivo, SCID mice; settings: Day 33; without ultrasound exposure
Experimental: Severe combined immunodeficiency (SCID) mice were subcutaneously implanted with luminescence-labelled hypopharynx carcinoma cell line (FaDu-fLuc/GFP) (2×10^6 cells/mouse) into the right flank region on Day 0. On Day 4, tumor xenograft formation and size in implanted SCID mice were determined by IVIS® bioluminescence imaging system (version 4.4, Caliper Life Sciences, Alameda, Calif., USA). The implanted SCID mice were then classified into group I to group V (hereinafter referred to as “Gps I-V”), and the implanted SCID mice of each group were treated with different pharmaceutical compositions, which are summarized in Table 6 below. Specifically, the mice of Gp I was the control group, and was treated with saline. The mice of Gp II were treated with cisplatin dissolved in saline. The mice of Gp III were treated with saline containing the mixture of cisplatin and albumin microbubbles (concentration: 1.4×10^8 particles/mL), followed by ultrasound exposure (power: 3 W/cm^2, 30 seconds). […] The anti-tumor effect of cisplatin-based chemotherapy was evaluated in vivo on the growth of head and neck cancer by twice-weekly recordings of luciferase bioluminescence data derived from IVIS® images. On day 33, after the IVIS® images of the mice were obtained, the mice were sacrificed and analysed.

[2] = Body weight during the 33-day treatment; type: in vivo, SCID mice; settings: 33-day treatment period; without ultrasound
Experimental: Severe combined immunodeficiency (SCID) mice were subcutaneously implanted with luminescence-labelled hypopharynx carcinoma cell line (FaDu-fLuc/GFP) (2×10^6 cells/mouse) into the right flank region on Day 0. On Day 4, tumor xenograft formation and size in implanted SCID mice were determined by IVIS® bioluminescence imaging system (version 4.4, Caliper Life Sciences, Alameda, Calif., USA). The implanted SCID mice were then classified into group I to group V (hereinafter referred to as “Gps I-V”), and the implanted SCID mice of each group were treated with different pharmaceutical compositions, which are summarized in Table 6 below. Specifically, the mice of Gp I was the control group, and was treated with saline. The mice of Gp II were treated with cisplatin dissolved in saline. The mice of Gp III were treated with saline containing the mixture of cisplatin and albumin microbubbles (concentration: 1.4×10^8 particles/mL), followed by ultrasound exposure (power: 3 W/cm^2, 30 seconds). […] The anti-tumor effect of cisplatin-based chemotherapy was evaluated in vivo on the growth of head and neck cancer by twice-weekly recordings of luciferase bioluminescence data derived from IVIS® images. On day 33, after the IVIS® images of the mice were obtained, the mice were sacrificed and analysed. […]

head and neck cancers = settings: patients with head and neck cancers; cited from earlier work
[3] = intraperitoneal, single 14 mg/kg or 4.6 mg/kg/day for three consecutive days; cited from earlier work

N.N.[Cl][Pt][Cl] [CDDP, Cis-Diamine platinum (II) Dichloride]
Tumor reduction / inhibition of tumor growth (luminescence flux) [1]: significantly better outcomes as compared to Gp IV
Body weight gain compared with Gp I, Gp IV and Gp V [2]: statistically smaller body weight gain
Median survival time (head and neck cancers): 151 days
Hearing threshold [3]: caused a hearing threshold shift
